Assays:
α-synuclein oligomers [1] = biological target: T1, α-synuclein oligomers (Homo sapiens, UniProt P37840); assay: Gaussia luciferase protein-fragment complementation cell assay of α-synuclein oligomers in H4 neuroglioma cells; type: cell-based; design: full-length human α-synuclein fused to the N-terminal fragment of Gaussia princeps luciferase (syn-luc1); full-length human α-synuclein fused to the C-terminal fragment of Gaussia princeps luciferase (syn-luc2); expressed in transfected cells; host or cells: H4 neuroglioma cells (ATCC, HTB-148), transient co-transfection; conditions: for decrease in luciferase activity compared with vehicle alone / α-syn oligomers as measured by luciferase activity: 1 μM or 10 μM; for decrease in luciferase activity compared with vehicle alone: 24 hours of treatment; for α-syn oligomers as measured by luciferase activity: Example 9
Experimental: (§1) For controls in this assay, vehicle (i.e., DMSO), rapamycin, and bafilomycin A were used. Rapamycin, or sirolimus, is a small molecule that activates autophagy by inhibiting mTOR (mammalian target of rapamycin). […] To test this possibility, cells expressing α-synuclein were treated with each of the compounds and a cell permeable, resazurin-based assay was used to test for cell viability.
(§2) H4 neuroglioma cells (ATCC, HTB-148) were maintained in Dulbecco's Modified Eagle Medium plus high glucose, L-glutamine, and sodium pyruvate (ThermoFisher, 11995-065) with 10% heat-inactivated fetal bovine serum (ThermoFisher, 16140071) and 1% antibiotic-antimycotic cocktail (ThermoFisher, 15240062) at 37° C. and 5% CO2. DNA expression constructs encoding for full-length human α-synuclein fused to the N-terminal fragment of Gaussia princeps luciferase (syn-luc1), full-length human α-synuclein fused to the C-terminal fragment of Gaussia princeps luciferase (syn-luc2), and full-length Gaussia princeps luciferase were kindly provided by Dr. Pamela McLean, Mayo Clinic Jacksonville.^33 Cells were transiently co-transfected with syn-luc1 and syn-luc2 or transfected with luciferase alone using Superfect transfection reagent (Qiagen, 301305) according to the manufacturer's instructions. Twenty-four hours after transfection, cells were plated on a 96-well microplate at 60,000 cells per well. Twenty-four hours after plating, cells were treated with drugs or vehicle control. Following 24 hours of treatment, cells were washed 1 time with PBS and bioluminescence was measured using an automated CLARIOstar plate reader (Mandel, 430-0505). Cell permeable, native coelenterazine was used as the Gaussia luciferase substrate. Lyophilized coelenterazine (Nanolight, 303-500) was reconstituted in NanoFuel Solvent (Nanolight, 399-1), then diluted in PBS to 16.6 μg/mL, and dispensed per well to a final concentration of 20 μM). The bioluminescent signal generated by the luciferase enzyme was assessed at 470 nm over 5 seconds. Raw luminescence units were normalized to the DMSO vehicle control of each 96-well microplate. To assess cell viability, H4 neuroglioma cells were prepared and treated as described above and, 1 hour prior to viability analysis, cells were treated with PrestoBlue viability reagent (ThermoFisher, A13261) according to the manufacturer's instructions. Fluorescence was automatically measured using a CLARIOstar plate reader (Mandel, 430-0505) and then normalized to the fluorescence measure of the DMSO vehicle control.
We used a bioluminescent protein-fragment complementation assay in which human H4 neuroglioma cells co-express human α-synuclein tagged with the N- or C-terminal half of Gaussia princeps luciferase (FIG. 12). Reconstitution of a complete and active luciferase molecule from the fragments occurs upon α-synuclein oligomerization, and so luminescence provides an indirect measure of α-synuclein oligomer levels. H4 neuroglioma cells were co-transfected with α-syn luciferase fragments, and constructs were plated into a 96-well plate and treated with either 1 μM or 10 μM of each of the 19 drug compounds.

H4 neuroglioma cells = conditions: for reduced cell survival: human, 24 h
Experimental: as §1, §2

[2] = test system: transgenic A30P α-synuclein C. elegans; assay: Coiler score and locomotion of C. elegans expressing A30P α-synuclein in dopaminergic neurons; type: in vivo, Caenorhabditis elegans; conditions: for reduction in coiling compared with vehicle alone (decrease): 100 μM of drug, 3 days on drug plates
Experimental: Using high-resolution, multi-worm tracking with custom image processing, methods were developed for semi-automated and blinded scoring of circularity for a population of simultaneously recorded animals (n=10 per recording). A coiler score was determined for the population tested by first calculating the circularity value for each animal in each frame of video and then calculating the proportion of circularity values >0.6. […] The coiler phenotype is an abnormal motor behaviour previously reported for several unc C. elegans strains with mutations affecting neuronal function.
Animals were synchronized by isolating eggs using alkaline hypochlorite treatment and hatching overnight. Larvae were plated onto NGM agar plates with OP50 and grown for 4 days before recording locomotion. For individual C. elegans recordings, a single adult animal was randomly picked, washed for 1 to 2 minutes in M9 buffer, and then transferred to a fresh NGM plate without food for imaging. Video images were acquired (2 frames per second) for up to 6 minutes using a sCMOS camera (pco.edge, PCO) mounted on a stereomicroscope (Olympus MVX10 MacroView) controlled using the μManager software.^55 A total of 40 individual animals were imaged for each strain. For C. elegans population recordings, ten adult animals were randomly removed using an eyelash pick, washed for 1 minute in M9 buffer, and then transferred to a fresh NGM plate without food, with a ring of copper sulfate solution (150 mM) around the area of recording (a chemorepellent to keep the animals in the recording frame). Exploratory locomotion was recorded using a CCD camera (GX1920, Allied Vision) which was attached to a dissecting stereomicroscope (Leica M165C, 1.0× PlanApo lens). A Labview program captured video (2 frames per second) at 1936×1456 resolution. Using ImageJ, the displacement, perimeter, and area of each animal was calculated, from which a circularity value was computed using the following formula: circularity=4π(A/P^2), where A is the area of the animal's body and P is the perimeter of the animal's body (both expressed in arbitrary pixel units). […] Using MATLAB (Mathworks), various behavioural metrics including the coiler score were calculated, which is the percentage of frames with a circularity value >0.6. Speed was automatically computed from the ImageJ based WrmTrk plugin as the distance travelled by each animal (in pixels) over the amount of time that it was tracked (in seconds).56 Average speed was determined by calculating the weighted average of each tracked animal's speed within a single population of animals. On the day of the recording for dopamine or raclopride treatment, adult animals were washed for 1 minute in M9 buffer, treated in a solution containing either drug for 1 minute, and then placed onto fresh NGM plates without food, with a copper sulfate solution ring around the area of recording. […] Drug plates were prepared by adding each drug to LB medium with OP50 before spreading onto fresh NGM plates. The solvent used to dissolve each drug was used as vehicle control for the drug treatment experiments (M9 buffer for dopamine, distilled water for raclopride, DMSO for all other drugs).
After 72 hours of drug treatment, animals were randomly picked, washed, and recorded. A total of ten worms were recorded per population, and twelve populations were recorded for each of the four treatment groups. Locomotion was recorded for each population over a total of 1800 frames over three minutes. The animal's movement speed, area, and perimeter were automatically analyzed as previously described. Coiler score was calculated automatically using a ratio of the animal's area to perimeter, where a higher coiler score would represent a greater degree of α-synuclein-induced dopaminergic neuron dysfunction in vivo.

[3] = test system: full-length Gaussia princeps luciferase; assay: Activity of full-length Gaussia luciferase alone in H4 cells; type: cell-based
Experimental: as §1, §2

α-synuclein oligomers [4] = biological target: T1, α-synuclein oligomers; assay: Venus YFP protein-fragment complementation assay in rat primary cortical neurons; type: cell-based; conditions: 72 hours; for YFP fluorescence compared with vehicle control: 10 μM
control GFP C. elegans = assay: Coiler score and locomotion of control GFP C. elegans; type: in vivo, Caenorhabditis elegans; conditions: 1 mM, animals not expressing α-synuclein
Experimental: Animals were synchronized by isolating eggs using alkaline hypochlorite treatment and hatching overnight. Larvae were plated onto NGM agar plates with OP50 and grown for 4 days before recording locomotion. For individual C. elegans recordings, a single adult animal was randomly picked, washed for 1 to 2 minutes in M9 buffer, and then transferred to a fresh NGM plate without food for imaging. Video images were acquired (2 frames per second) for up to 6 minutes using a sCMOS camera (pco.edge, PCO) mounted on a stereomicroscope (Olympus MVX10 MacroView) controlled using the μManager software.^55 A total of 40 individual animals were imaged for each strain. For C. elegans population recordings, ten adult animals were randomly removed using an eyelash pick, washed for 1 minute in M9 buffer, and then transferred to a fresh NGM plate without food, with a ring of copper sulfate solution (150 mM) around the area of recording (a chemorepellent to keep the animals in the recording frame). Exploratory locomotion was recorded using a CCD camera (GX1920, Allied Vision) which was attached to a dissecting stereomicroscope (Leica M165C, 1.0× PlanApo lens). […] Using ImageJ, the displacement, perimeter, and area of each animal was calculated, from which a circularity value was computed using the following formula: circularity=4π(A/P^2), where A is the area of the animal's body and P is the perimeter of the animal's body (both expressed in arbitrary pixel units). […] Using MATLAB (Mathworks), various behavioural metrics including the coiler score were calculated, which is the percentage of frames with a circularity value >0.6. Speed was automatically computed from the ImageJ based WrmTrk plugin as the distance travelled by each animal (in pixels) over the amount of time that it was tracked (in seconds).56 Average speed was determined by calculating the weighted average of each tracked animal's speed within a single population of animals. […]
C. elegans were grown and maintained as previously described (Examples 1-6). […] After 72 hours of drug treatment, animals were randomly picked, washed, and recorded. […]

SMILES: Cn1c(=O)c2[nH]cnc2n(C)c1=O [Theophylline]
- decrease in luciferase activity compared with vehicle alone (α-synuclein oligomers [1]): 8%

SMILES: CN1C(C(=O)Nc2ccccn2)=C(O)c2ccccc2S1(=O)=O [Piroxicam]
- reduced cell survival (H4 neuroglioma cells): > 15%
- decrease in luciferase activity compared with vehicle alone (α-synuclein oligomers [1]): 19%

SMILES: COc1cc([C@@H]2c3cc4c(cc3[C@@H](O[C@@H]3O[C@@H]5CO[C@@H](C)O[C@H]5[C@H](O)[C@H]3O)[C@H]3COC(=O)[C@H]23)OCO4)cc(OC)c1O [Etoposide]
- reduced cell survival (H4 neuroglioma cells): > 15%
- decrease in luciferase activity compared with vehicle alone (α-synuclein oligomers [1]): 30%

SMILES: CC(=O)Nc1ccc(O)cc1 [Acetaminophen]
- changes in viability (H4 neuroglioma cells): No statistically significant changes
- reduction in coiling compared with vehicle alone (decrease) [2]: 32%
- changes in the activity of full-length Gaussia luciferase alone ([3]; Example 5, FIG. 5c): No statistically significant changes
- decrease in luciferase activity compared with vehicle alone (α-synuclein oligomers [1]): 14%

SMILES: CCCC(=O)Nc1ccc(OCC(O)CNC(C)C)c(C(C)=O)c1 (centres unmarked) [Acebutolol]
- YFP fluorescence compared with vehicle control (α-synuclein oligomers [4]): No significant differences
- changes in the activity of full-length Gaussia luciferase alone ([3]; 10 μM, FIG. 14): No statistically significant changes
- α-syn oligomers as measured by luciferase activity (α-synuclein oligomers [1]): significant decrease

SMILES: CN(C)CCCOc1nn(Cc2ccccc2)c2ccccc12 [Benzydamine]
- α-syn oligomers as measured by luciferase activity (α-synuclein oligomers [1]): significant decrease

SMILES: CO[C@H]1C[C@@H]2CC[C@@H](C)[C@@](O)(O2)C(=O)C(=O)N2CCCC[C@H]2C(=O)O[C@H]([C@H](C)C[C@@H]2CC[C@@H](O)[C@H](OC)C2)CC(=O)[C@H](C)/C=C(\C)[C@@H](O)[C@@H](OC)C(=O)[C@H](C)C[C@H](C)/C=C/C=C/C=C/1C [Rapamycin]
- changes in viability (H4 neuroglioma cells): No statistically significant changes
- decrease in fluorescence compared with vehicle alone (α-synuclein oligomers [4]; losartan 100 μM, rapamycin 50 nM, rifabutin 20 μM): 36%
- reduction in coiling compared with vehicle alone (decrease) [2]: 30%

SMILES: Sc1ncnc2nc[nH]c12 [Mercaptopurine]
- changes in viability (H4 neuroglioma cells): No statistically significant changes
- effect on coiling / coiler score ([2]; 100 μM, 72 hr, vs DMSO vehicle): no effect
- changes in the activity of full-length Gaussia luciferase alone ([3]; Example 5, FIG. 5c): No statistically significant changes
- decrease in luciferase activity compared with vehicle alone (α-synuclein oligomers [1]): 17%

SMILES: Cn1c(=O)c2c(ncn2C)n(C)c1=O [Caffeine]
- reduction in coiling compared with vehicle alone (decrease) [2]: 37%
- changes in the activity of full-length Gaussia luciferase alone ([3]; Example 5, FIG. 5c): No statistically significant changes
- decrease in luciferase activity compared with vehicle alone (α-synuclein oligomers [1]): 16%

SMILES: NC(=O)C[S+]([O-])C(c1ccccc1)c1ccccc1 (centres unmarked) [Modafinil]
- reduced cell viability (decrease) (H4 neuroglioma cells; 1-20 μM, Example 9): 32%
- concentration with significant loss in cell viability (H4 neuroglioma cells; drugs 1-20 μM, FIG. 13): < 5 µM
- α-syn oligomers as measured by luciferase activity (α-synuclein oligomers [1]): significant decrease

SMILES: Oc1c(I)cc(Cl)c2cccnc12 [Clioquinol]
- α-syn oligomers as measured by luciferase activity (α-synuclein oligomers [1]): significant decrease

SMILES: CC[C@]1(O)C[C@H]2CN(CCc3c([nH]c4ccccc34)[C@@](C(=O)OC)(c3cc4c(cc3OC)N(C=O)[C@H]3[C@@](O)(C(=O)OC)[C@H](OC(C)=O)[C@]5(CC)C=CCN6CC[C@]43[C@@H]65)C2)C1 [Vincristine]
- reduced cell survival (H4 neuroglioma cells): > 15%
- decrease in luciferase activity compared with vehicle alone (α-synuclein oligomers [1]): 33%

SMILES: CCN1CCC[C@H]1CNC(=O)c1c(O)c(Cl)cc(Cl)c1OC [Raclopride, raclopride]
- coiling after D2 receptor blockade (control GFP C. elegans): recapitulated the coiling behaviour

SMILES: Nc1ccn([C@@H]2CS[C@H](CO)O2)c(=O)n1 [Lamivudine]
- YFP fluorescence compared with vehicle control (α-synuclein oligomers [4]): No significant differences
- changes in the activity of full-length Gaussia luciferase alone ([3]; 10 μM, FIG. 14): No statistically significant changes
- α-syn oligomers as measured by luciferase activity (α-synuclein oligomers [1]): significant decrease

SMILES: NCCc1ccc(O)c(O)c1 [Dopamine, dopamine]
- coiling with exogenous dopamine ([2]; increasing concentrations, 1 minute treatment): decreased with treatment in a dose-dependent manner

SMILES: CO/C1=C\C(C)=C\[C@@H](C)[C@@H](O)[C@@H](C)C/C(C)=C/C=C/[C@H](OC)[C@@H]([C@@H](C)[C@@H](O)[C@H](C)[C@@]2(O)C[C@@H](O)[C@H](C)[C@@H](C(C)C)O2)OC1=O [Bafilomycin A1, bafilomycin A1]
- change in α-synuclein oligomer levels (active controls) (α-synuclein oligomers [1]; rapamycin 2 μM, bafilomycin A1 50 nM): increase

Source: US20250134895A1, “METHODS AND COMPOSITIONS FOR TREATING ALPHA-SYNUCLEIN-MEDIATED NEURODEGENERATION” (UNIVERSITY HEALTH NETWORK, priority 2021, published 2025)
